Like-named read-outs stand apart in the source and are kept apart here.
Tests used:
[1] = test system: phosphorylation of pRb at the Ser780 site in JeKo-1 mantle cell lymphoma cells; assay: CDK4 cellular assay: ELISA of pRb phosphorylation at Ser780 in JeKo-1 cells; assay type: cell-based; conditions: Homo sapiens
CDK4/cyclin D1 = CDK4/cyclin D1 (Homo sapiens (Human), UniProt P11802); assay: CDK4/cyclin D1 enzymatic activity assay (TR-FRET, phosphorylation of pRb at Ser780); assay type: biochemical
Method in brief: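 Phosphorylation at pRb Ser780, detected by TR-FRET, gave IC50s and kinetics. Enzyme: baculovirus/Sf21-expressed human CDK4/cyclin D1. ATP at 3 μM initiated the reaction; EDTA (pH 8.0) stopped it after 60 min at 22° C.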

CDK1/cyclin B = CDK1/cyclin B (Homo sapiens (Human), UniProt P06493); assay: CDK1/cyclin B enzymatic activity assay (IMAP-FP); assay type: biochemical; conditions: 100 nM Tamra Histone-H1 peptide, 20 μM ATP, 120 min at room temperature, read-out: Biochemical CDK1 enzyme IC50
Source text: CDK1/Cyclin B Enzymatic Activity Assay
A 384-well microtiter IMAP-FP™ (Molecular Devices Trade Mark Technology) endpoint assay was used for CDK1/cyclin B kinase activity measurements. The same assay was used for IC50 determination of small molecule inhibitors.

[2] = JeKo-1, JeKo-1 cells, p-pRb % inhibition adjusted with total pRb levels, read-out: Normalized cellular ppRb inhibition IC50
[3] = JeKo-1, JeKo-1 cells, p-pRb Ser780 ELISA, non-normalized, read-out: Cellular ppRb inhibition IC50
[4] = 0.3 nM CDK4/cyclin D1, 150 nM biotin-pRb (773-924), 3 μM ATP, 60 min at 22° C., read-out: Biochemical CDK4 enzyme IC50
[5] = JeKo-1 cells, p-pRb % inhibition adjusted with total pRb levels, read-out: Normalized cellular ppRb inhibition IC50
[6] = JeKo-1 cells, p-pRb Ser780 ELISA, non-normalized, read-out: Cellular ppRb inhibition IC50

Sequence of CDK1/cyclin B (P06493 whole entry, species assumed): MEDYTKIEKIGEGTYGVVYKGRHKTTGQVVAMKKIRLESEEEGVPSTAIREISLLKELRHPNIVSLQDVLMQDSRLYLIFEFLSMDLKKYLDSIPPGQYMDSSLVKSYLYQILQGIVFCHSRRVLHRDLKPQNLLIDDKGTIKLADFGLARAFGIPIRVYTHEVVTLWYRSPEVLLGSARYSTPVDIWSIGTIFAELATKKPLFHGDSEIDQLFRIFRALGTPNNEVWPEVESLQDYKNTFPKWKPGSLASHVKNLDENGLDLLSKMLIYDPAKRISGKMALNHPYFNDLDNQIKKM
Sequence of CDK1/cyclin B (P14635 whole entry partner, species assumed): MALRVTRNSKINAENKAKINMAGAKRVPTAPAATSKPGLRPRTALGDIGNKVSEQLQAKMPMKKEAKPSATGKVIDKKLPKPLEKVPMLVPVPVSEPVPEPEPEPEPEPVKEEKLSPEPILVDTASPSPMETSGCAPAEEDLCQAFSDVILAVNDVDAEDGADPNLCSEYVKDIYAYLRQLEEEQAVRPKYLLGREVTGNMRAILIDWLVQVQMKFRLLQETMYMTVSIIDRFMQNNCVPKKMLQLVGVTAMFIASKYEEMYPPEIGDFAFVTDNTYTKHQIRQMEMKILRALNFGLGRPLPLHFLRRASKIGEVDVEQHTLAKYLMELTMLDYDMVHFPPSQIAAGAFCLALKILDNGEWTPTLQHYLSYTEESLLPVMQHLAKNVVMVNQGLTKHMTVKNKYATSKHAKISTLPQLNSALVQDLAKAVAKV
Sequence of CDK4/cyclin D1 (P11802 whole entry): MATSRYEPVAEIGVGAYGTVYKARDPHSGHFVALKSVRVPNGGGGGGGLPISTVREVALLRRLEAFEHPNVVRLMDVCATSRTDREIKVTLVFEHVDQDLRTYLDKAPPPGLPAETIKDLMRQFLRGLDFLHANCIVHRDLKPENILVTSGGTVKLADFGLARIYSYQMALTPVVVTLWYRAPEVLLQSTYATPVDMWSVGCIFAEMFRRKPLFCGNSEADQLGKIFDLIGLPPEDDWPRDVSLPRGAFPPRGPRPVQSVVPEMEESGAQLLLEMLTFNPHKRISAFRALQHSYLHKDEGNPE
Sequence of CDK4/cyclin D1 (P24385 whole entry partner): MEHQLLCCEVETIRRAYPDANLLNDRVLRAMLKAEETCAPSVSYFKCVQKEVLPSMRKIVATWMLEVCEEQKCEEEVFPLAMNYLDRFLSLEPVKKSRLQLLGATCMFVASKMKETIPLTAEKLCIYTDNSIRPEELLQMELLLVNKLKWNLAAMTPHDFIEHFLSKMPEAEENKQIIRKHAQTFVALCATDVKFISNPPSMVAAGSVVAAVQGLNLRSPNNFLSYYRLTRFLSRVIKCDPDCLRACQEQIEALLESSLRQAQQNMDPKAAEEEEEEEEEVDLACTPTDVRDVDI

Structure (SMILES)	IC50 [1, 2] [nM]	IC50 [1, 3] [nM]	IC50 (CDK4/cyclin D1; [4]) [nM]	IC50 (CDK1/cyclin B; 0.25 nM CDK1/cyclin B) [nM]	IC50 (CDK1/cyclin B; […] CDK1/cyclin B) [nM]	IC50 [1, 5] [nM]	IC50 [1, 6] [nM]	IC50 (CDK4/cyclin D1) [nM]	IC50 ([1]; JeKo-1, read-out: Cellular ppRb inhibition IC50) [nM]	IC50 ([1]; JeKo-1, read-out: Normalized cellular ppRb inhibition IC50) [nM]
CN1C[C@@H]2CN(c3ccc(Nc4ncc5cc(C(=O)N(C)C)n(C6CCCC6)c5n4)nc3)C(=O)[C@@H]2C1 (stereo in doubt) [Example 95, 7-cyclopentyl-N,N-dimethyl-2-(5-((3aR,6aS)-5-methyl-1-oxohexahydropyrrolo[3,4-c]pyrrol-2(1H)-yl)pyridin-2-ylamino)-7H-pyrrolo[2,3-d]pyrimidine-6-carboxamide]	21 to 65	4 to 20	7	14000 to 14300	–	–	–	–	–	–
CN(C)C(=O)c1cc2cnc(Nc3ccc(C(=O)N4CCC[C@@H]5CCN[C@@H]5C4)cn3)nc2n1C1CCCC1 [Example 25, 7-Cyclopentyl-2-[5-((3aR,8aS)-octahydro-pyrrolo[2,3-c]azepine-7-carbonyl)-pyridin-2-ylamino]-7H-pyrrolo[2,3-d]pyrimidine-6-carboxylic acid dimethylamide]	22	20	8	–	> 15000	–	–	–	–	–
CN(C)C(=O)c1cc2cnc(Nc3ccc(C(=O)N4CC5CCC(C4)N5C(=O)C4CCCN4)cn3)nc2n1C1CCCC1 (stereo not drawn) [Example 61, 7-Cyclopentyl-2-{5-[8-(pyrrolidine-2-carbonyl)-3,8-diaza-bicyclo[3.2.1]octane-3-carbonyl]-pyridin-2-ylamino}-7H-pyrrolo[2,3-d]pyrimidine-6-carboxylic acid dimethylamide]	–	–	20	–	> 15000	53	21	–	–	–
CN(C)C(=O)c1cc2cnc(Nc3ccc(C(=O)N4CC5CCC(C4)N5)nn3)nc2n1C1CCCC1 [Example 38, 7-Cyclopentyl-2-[6-(3,8-diaza-bicyclo[3.2.1]octane-3-carbonyl)-pyridazin-3-ylamino]-7H-pyrrolo[2,3-d]pyrimidine-6-carboxylic acid dimethylamide]	139 to 783	75 to 259	–	> 15000	–	–	–	45 to 84	–	–
CN(C)C(=O)c1cc2cnc(Nc3ccc(N4CC5CCC(CC4=O)N5)cn3)nc2n1C1CCCCC1 (stereo not drawn) [Example 131, 7-cyclohexyl-N,N-dimethyl-2-(5-(4-oxo-3,9-diazabicyclo[4.2.1]nonan-3-yl)pyridin-2-ylamino)-7H-pyrrolo[2,3-d]pyrimidine-6-carboxamide]	24	14	4	–	> 15000	–	–	–	–	–
CC(=O)N1C2CCC1CN(C(=O)c1ccc(Nc3ncc4cc(C(=O)N(C)C)n(C5CCCC5)c4n3)nc1)C2 [Example 27, 2-(5-(8-acetyl-3,8-diazabicyclo[3.2.1]octane-3-carbonyl)pyridin-2-ylamino)-7-cyclopentyl-N,N-dimethyl-7H-pyrrolo[2,3-d]pyrimidine-6-carboxamide]	–	–	46	–	> 15000	201	194	–	–	–
CN(C)C(=O)c1cc2cnc(Nc3ccc(C(=O)N4CC5CCC(C4)N5)cn3)nc2n1C1CCN(C(C)(C)C)CC1 [Example 57, 7-(1-tert-Butyl-piperidin-4-yl)-2-[5-(3,8-diaza-bicyclo[3.2.1]octane-3-carbonyl)-pyridin-2-ylamino]-7H-pyrrolo[2,3-d]pyrimidine-6-carboxylic acid dimethylamide]	–	–	1570	–	> 15000	> 10000	> 10000	–	–	–
CN(C)C(=O)c1cc2cnc(Nc3ccc(N4CCN5CCCC5C4=O)cn3)nc2n1C1CCCCC1 (stereo not drawn) [Example 98, 7-Cyclohexyl-2-[5-(1-oxo-hexahydro-pyrrolo[1,2-a]pyrazin-2-yl)-pyridin-2-ylamino]-7H-pyrrolo[2,3-d]pyrimidine-6-carboxylic acid dimethylamide]	–	–	16 to 98	–	> 15000	–	–	–	136 to 266	291 to 887
CN(C)C(=O)c1cc2cnc(Nc3ccc(C(=O)N4C[C@@H]5C[C@H]4CN5)cn3)nc2n1C1CCCC1 [Example 19, 7-Cyclopentyl-2-[5-((S,S)-2,5-diaza-bicyclo[2.2.1]heptane-2-carbonyl)-pyridin-2-ylamino]-7H-pyrrolo[2,3-d]pyrimidine-6-carboxylic acid dimethylamide]	64 to 116	54 to 55	5 to 8	–	> 15000	–	–	–	–	–

From patent US8957074B2 (Novartis AG, priority 2010, dated 2015)
